Experimental data: patent publication US4220771A, “2,3-Polymethylene-4-oxo-4H-pyrido[1,2-a]pyrimidines” (Chinoin Gyogyszer es Vegyeszeti Termekek Gyara Rt, priority 1977, dated 1980)
Structures can show the parent of a compound that is named as a salt.

Tests used:
Assay type in all cases: in vivo
[1] = toxicity in mice, 48 hours observation, Litchfield-Wilcoxon graphic method; details: mouse, in vivo
mice [2] = test: analgesic activity, "hot plate" test; details: for ED50: Mus musculus
From the text: (§1) Also the analgesic and morphine-potentiating activities were investigated on mice. The test results obtained in a "hot plate" test (J. Pharm. Exp. Therp. 80 130 (1944) and Kiserl. Orvostudomany 2, 295 (1950) and results obtained in laparotomic test of Knoll (Animal and Clinical Pharmacologic Techniques in Drug Evaluation. Vol. 2. 305-321 (1967), Year Book Publ. Chicago) are shown in Table 1.

mice [3] = test: morphine-potentiating activity; details: i.v., with 5 mg. morphine
From the text: as §1

mice [4] = test: toxicity in mice, 48 hours observation, Litchfield-Wilcoxon graphic method

With `Cc1ccn2c(=O)c3c(nc2c1)CCC3` [2,3-trimethylene-8-methyl-4-oxo-4H-pyrido(1,2-a)pyrimidine-hydrochloride] the LD50 at 48 h ([1]; iv) was 120 mg/kg, the ED50 (mice [2]; iv) was 65 mg/kg and the “Dose potentiating the activity of 5 mg. morphine, ED50” value (“Dose potentiating the activity” for short) (mice [3]) was 4.8 mg/kg.

With `O=c1c2c(nc3ccccn13)CCCCC2` [2,3-pentamethylene-4-oxo-4H-pyrido(1,2-a)pyrimidine-hydrochloride] the LD50 at 48 h ([1]; iv) was 210 mg/kg, the LD50 at 48 h ([1]; sc) was 630 mg/kg and the ED50 (mice [2]; sc) was 66 mg/kg. For the same molecule, the “Dose potentiating the activity” value (mice [3]) was 3.7 mg/kg.

For `CCOC(=O)c1c[n+](C)c2n(c1=O)C(C)CCC2.COS(=O)(=O)[O-]` (stereo not drawn) [PROBON, reference compound], the LD50 (mice [4]; i.v.) was 220 mg/kg, the LD50 (mice [4]; s.c.) was 790 mg/kg and the “Hot plate ED50” value (mice [2]; i.v.) was 43 mg/kg. The “Hot plate ED50” value (mice [2]; s.c.) was 75 mg/kg and the “Dose potentiating the activity” value (mice [3]) was 25.0 mg/kg.

In the case of `O=c1c2c(nc3ccccn13)CCCCCC2` [2,3-hexamethylene-4-oxo-4H-pyrido(1,2-a)pyrimidine-hydrochloride], the LD50 at 48 h ([1]; iv) is reported as 125 mg/kg, the LD50 at 48 h ([1]; sc) is reported as 500 mg/kg and the ED50 (mice [2]; sc) is reported as 105 mg/kg. The “Dose potentiating the activity” value (mice [3]) was 4.5 mg/kg.

In the case of `Cc1cccc2nc3c(c(=O)n12)CCCC3` [2,3-tetramethylene-6-methyl-4-oxo-4H-pyrido(1,2-a)pyrimidine-hydrochloride], the LD50 at 48 h ([1]; iv) is reported as 160 mg/kg and the “Dose potentiating the activity” value (mice [3]) is reported as 7.8 mg/kg.

For `Cc1cc(C)n2c(=O)c3c(nc2c1)CCC3` [2,3-trimethylene-6,8-dimethyl-4-oxo-4H-pyrido(1,2-a)pyrimidine-hydrochloride], the LD50 at 48 h ([1]; iv) was 120 mg/kg, the ED50 (mice [2]; iv) was 42 mg/kg and the “Dose potentiating the activity” value (mice [3]) was 1.0 mg/kg.

For `Cc1ccc2nc3c(c(=O)n2c1)CCC3` [2,3-trimethylene-7-methyl-4-oxo-4H-pyrido(1,2-a)pyrimidine-hydrochloride], the LD50 at 48 h ([1]; iv) was 120 mg/kg, the ED50 (mice [2]; iv) was 47 mg/kg and the “Dose potentiating the activity” value (mice [3]) was 1.0 mg/kg.
